Reference: patent publication US10667517B2, “2-(Het)aryl-substituted fused heterocycle derivatives as pesticides” (BAYER CROPSCIENCE AKTIENGESELLSCHSAFT, priority 2015, dated 2020)

Columns and labels:
Ctenocephalides felis [1] = assay: Ctenocephalides felis - in vitro contact tests with adult cat fleas; type: in vivo; conditions: application rate 5 μg/cm^2 (500 g/ha); adult cat fleas in coated tubes; after 48 h; dead or moribund
Description: Ctenocephalides felis—In Vitro Contact Tests with Adult Cat Fleas
(§1) For the coating of the test tubes, 9 mg of active compound are first dissolved in 1 ml of acetone p.a. and then diluted to the desired concentration with acetone p.a. 250 μl of the solution are distributed homogeneously on the inner walls and the base of a 25 ml test tube by turning and rocking on an orbital shaker (rocking rotation at 30 rpm for 2 h). With 900 ppm active compound solution and internal surface 44.7 cm^2, given homogeneous distribution, an area-based dose of 5 μg/cm^2 is achieved.
After the solvent has evaporated off, the tubes are populated with 5-10 adult cat fleas (Ctenocephalides felis), sealed with a perforated plastic lid and incubated in a horizontal position at room temperature and ambient humidity. After 48 h, efficacy is determined. To this end, the test tubes are stood upright and the fleas are knocked to the base of the tube. Fleas which remain motionless at the base or move in an uncoordinated manner are considered to be dead or moribund.
100% efficacy means that all the fleas were dead or moribund. 0% efficacy means that no fleas were harmed.

Lucilia cuprina = Lucilia cuprina test; type: in vivo; conditions: application rate 100 ppm; L1 larvae in minced horsemeat; after 2 days
Description: Lucilia cuprina Test • Solvent: dimethyl sulphoxide To produce a suitable active compound preparation, 10 mg of active compound are mixed with 0.5 ml of dimethyl sulphoxide, and the concentrate is diluted with water to the desired concentration. About 20 L1 larvae of the Australian sheep blowfly (Lucilia cuprina) are transferred into a test vessel containing minced horsemeat and the active compound preparation of the desired concentration. After 2 days, the kill in % is determined. 100% means that all the larvae have been killed; 0% means that no larvae have been killed.

[2] = log P (neutral), HPLC on reversed-phase column (C 18), LC-MS neutral range; type: physicochemical; conditions: pH 7.8, ammonium hydrogencarbonate/acetonitrile; for chromatographic logP: reversed-phase HPLC column (C 18), pH 7.8, HPLC reversed-phase C 18, 55° C.; for log P (neutral): HPLC reversed-phase C 18, 55° C.
Description: Temperature: 55° C. […] Called log P (neutral) in the table.

Phaedon cochleariae = Phaedon cochleariae - spray test; type: in vivo; conditions: mustard beetle larvae on Chinese cabbage leaf discs, after 7 days; for pest or weed control at 500 g/ha / efficacy: application rate 500 g/ha
Description: Phaedon cochleariae—Spray Test
(§2) • Solvent: 78.0 parts by weight of acetone • 1.5 parts by weight of dimethylformamide • Emulsifier: alkylaryl polyglycol ether
(§3) To produce a suitable active compound preparation, 1 part by weight of active compound is dissolved with the stated parts by weight of solvent and made up with water containing an emulsifier concentration of 1000 ppm until the desired concentration is attained. To produce further test concentrations, the preparation is diluted with emulsifier-containing water.
After 7 days, the efficacy in % is determined. 100% means that all the beetle larvae have been killed; 0% means that no beetle larvae have been killed.

Ctenocephalides felis [3] = assay: Ctenocephalides felis - oral test; type: in vivo; conditions: application rate 100 ppm in citrated cattle blood; adult cat fleas; after 2 days
Description: Ctenocephalides felis—Oral Test • Solvent: dimethyl sulphoxide To produce a suitable active compound preparation, 10 mg of active compound are mixed with 0.5 ml of dimethyl sulphoxide. Dilution with citrated cattle blood gives the desired concentration. About 20 unfed adult cat fleas (Ctenocephalides felis) are placed into a chamber which is closed at the top and bottom with gauze. A metal cylinder whose bottom end is closed with parafilm is placed onto the chamber. The cylinder contains the blood/active compound preparation, which can be imbibed by the fleas through the parafilm membrane. After 2 days, the kill in % is determined. 100% means that all of the fleas have been killed; 0% means that none of the fleas have been killed.

Spodoptera frugiperda = Spodoptera frugiperda - spray test; type: in vivo; conditions: application rate 500 g/ha; armyworm caterpillars on maize leaf discs; after 7 days
Description: Spodoptera frugiperda—Spray Test
as §2, §3
Leaf discs of maize (Zea mays) are sprayed with an active compound preparation of the desired concentration and, after drying, populated with caterpillars of the armyworm (Spodoptera frugiperda).
After 7 days, the efficacy in % is determined. 100% means that all the caterpillars have been killed; 0% means that no caterpillars have been killed.

Myzus persicae = Myzus persicae - spray test; type: in vivo; conditions: application rate 500 g/ha; all stages of green peach aphid on Chinese cabbage leaf discs; after 5-6 days
Description: Myzus persicae—Spray Test
• Solvent: 78 parts by weight of acetone • 1.5 parts by weight of dimethylformamide • Emulsifier: alkylaryl polyglycol ether
as §3
Discs of Chinese cabbage leaves (Brassica pekinensis) infested by all stages of the green peach aphid (Myzus persicae) are sprayed with an active compound preparation of the desired concentration.
After 5-6 days, the efficacy in % is determined. 100% means that all the aphids have been killed; 0% means that no aphids have been killed.

Musca domestica = Musca domestica test; type: in vivo; conditions: application rate 100 ppm; adult houseflies, sponge with sugar solution; after 2 days
Description: Musca domestica Test • Solvent: dimethyl sulphoxide To produce a suitable active compound preparation, 10 mg of active compound are mixed with 0.5 ml of dimethyl sulphoxide, and the concentrate is diluted with water to the desired concentration. Vessels containing a sponge treated with sugar solution and the active compound preparation of the desired concentration are populated with 10 adult houseflies (Musca domestica). After 2 days, the kill in % is determined. 100% means that all of the flies have been killed; 0% means that none of the flies have been killed.

Meloidogyne incognita = Meloidogyne incognita test; type: in vivo; conditions: application rate 20 ppm; egg/larvae suspension with lettuce seeds in sand; formation of galls after 14 days
Description: Meloidogyne incognita Test • Solvent: 125.0 parts by weight of acetone To produce a suitable preparation of active compound, 1 part by weight of active compound is mixed with the stated amount of solvent and the concentrate is diluted with water to the desired concentration. Vessels are filled with sand, active compound solution, an egg/larvae suspension of the southern root-knot nematode (Meloidogyne incognita) and lettuce seeds. The lettuce seeds germinate and the plants develop. The galls develop on the roots. After 14 days, the nematicidal efficacy in % is determined by the formation of galls. 100% means that no galls were found; 0% means that the number of galls on the treated plants corresponds to the untreated control.

Tetranychus urticae = Tetranychus urticae - spray test, OP-resistant; type: in vivo; conditions: application rate 500 g/ha; all stages of greenhouse red spider mite on bean leaf discs; after 6 days
Description: Tetranychus urticae—Spray Test, OP-Resistant
as §2, §3
Discs of bean leaves (Phaseolus vulgaris) infested with all stages of the greenhouse red spider mite (Tetranychus urticae) are sprayed with an active compound preparation of the desired concentration.
After 6 days, the efficacy in % is determined. 100% means that all the spider mites have been killed; 0% means that no spider mites have been killed.

Rhipicephalus sanguineus = Rhipicephalus sanguineus - in vitro contact tests with adult brown dog ticks; type: in vivo; conditions: application rate 5 μg/cm^2 (500 g/ha); adult brown dog ticks in coated tubes; after 48 h; dead or moribund
Description: Rhipicephalus sanguineus—In Vitro Contact Tests with Adult Brown Dog Ticks
as §1
After the solvent has evaporated off, the tubes are populated with 5-10 adult dog ticks (Rhipicephalus sanguineus), sealed with a perforated plastic lid and incubated in a horizontal position in the dark at room temperature and ambient humidity. After 48 h, efficacy is determined. To this end, the ticks are knocked to the base of the tube and incubated on a hotplate at 45-50° C. for not more than 5 min. Ticks which remain motionless on the base or move in such an uncoordinated manner that they are unable to deliberately avoid the heat by climbing upwards are considered to be dead or moribund.
An efficacy of 100% means that all the ticks were dead or moribund. 0% efficacy means that none of the ticks were harmed.

Boophilus microplus = Boophilus microplus - injection test; type: in vivo; conditions: application rate 20 μg/animal; injected into engorged adult female cattle ticks; laying of fertile eggs after 7 days
Description: Boophilus microplus—Injection Test
• Solvent: dimethyl sulphoxide
To produce a suitable active compound preparation, 10 mg of active compound are mixed with 0.5 ml of solvent and the concentrate is diluted with solvent to the desired concentration. 1 μl of the active compound solution is injected into the abdomen of 5 engorged adult female cattle ticks (Boophilus microplus). The animals are transferred into dishes and kept in a climate-controlled room.
Efficacy is assessed after 7 days by laying of fertile eggs. Eggs which are not visibly fertile are stored in a climate-controlled cabinet until the larvae hatch after about 42 days. An efficacy of 100% means that none of the ticks has laid any fertile eggs; 0% means that all the eggs are fertile.

[4] = log P (acidic), HPLC on reversed-phase column (C 18), LC-MS acidic range; type: physicochemical; conditions: HPLC reversed-phase C 18, 55° C., pH 2.7, 0.1% formic acid/acetonitrile; for chromatographic logP: reversed-phase HPLC column (C 18)
Excerpt: Called log P (HCOOH) in the table.

[5] = Phaedon cochleariae, foliar, 168 h, read-out: efficacy

Compound	efficacy (Ctenocephalides felis [1]) [%]	efficacy (kill) (Lucilia cuprina) [%]	chromatographic logP [2]	efficacy (kill) (Ctenocephalides felis [3]) [%]	efficacy (Spodoptera frugiperda) [%]	efficacy (Myzus persicae) [%]	log P (neutral) [2]	efficacy (Phaedon cochleariae) [%]	other results
CCS(=O)(=O)c1ccc(NC(C)=O)nc1-c1nc2cc(C(F)(F)F)ccc2n1C [Example I-2, N-{5-(Ethylsulphonyl)-6-[1-methyl-5-(trifluoromethyl)-1H-benzimidazol-2-yl]pyridin-2-yl}acetamide]	100	100	2.5	95	100	100			pest or weed control at 500 g/ha (Phaedon cochleariae; [5]): 100%; efficacy (kill) (Musca domestica): 90%
CCS(=O)(=O)c1ccc(-n2cc(C(F)(F)F)cn2)nc1-c1nc2cc(C(F)(F)F)cnc2n1C [Example I-4, 2-{3-(Ethylsulphonyl)-6-[4-(trifluoromethyl)-1H-pyrazol-1-yl]pyridin-2-yl}-3-methyl-6-(trifluoromethyl)-3H-imidazo[4,5-b]pyridine]		100	4.04		100				pest or weed control at 100 g/ha (Phaedon cochleariae; Phaedon cochleariae, foliar, 168 h, application rate 100 g/ha, read-out: efficacy): 83%; efficacy (kill) (Musca domestica): 80%
CCS(=O)(=O)c1ccc(N)nc1-c1nc2cc(C(F)(F)F)cnc2n1C [Example I-6, 5-(Ethylsulphonyl)-6-[3-methyl-6-(trifluoromethyl)-3H-imidazo[4,5-b]pyridin-2-yl]pyridin-2-amine]			2.02			90			pest or weed control at 500 g/ha (Phaedon cochleariae; [5]): 100%; nematicidal efficacy (Meloidogyne incognita): 90%
CCS(=O)(=O)c1ccc(N)nc1-c1nc2cc3c(cc2n1C)OC(F)(F)O3 [Example I-8, 6-(2,2-Difluoro-7-methyl-[1,3]dioxolo[4,5-f]benzimidazol-6-yl)-5-ethylsulphonylpyridin-2-amine]			2.1		100	90			pest or weed control at 500 g/ha (Phaedon cochleariae; [5]): 100%; efficacy (Tetranychus urticae): 90%
CCS(=O)(=O)c1ccc(NC(=O)C2CC2)nc1-c1nc2cc(C(F)(F)F)ccc2n1C [Example I-10]	100	95		100	100		2.92	100	
CCS(=O)(=O)c1ccc(NC(=O)C(F)(F)F)nc1-c1nc2cc(C(F)(F)F)ccc2n1C [Example I-11]	100	100		100		90	3.27	100	efficacy (Rhipicephalus sanguineus): 80%
CCS(=O)(=O)c1ccc(-n2ccc(C(F)(F)F)n2)nc1-c1nc2cc(C(F)(F)F)cnc2n1C [Example I-13]		100			100			100	efficacy (kill) (Musca domestica): 80%
CCS(=O)(=O)c1ccc(NC(=O)C(F)(F)F)nc1-c1nc2cc(C(F)(F)F)cnc2n1C [Example I-15]					83	100	2.00	100	nematicidal efficacy (Meloidogyne incognita): 90%
CCS(=O)(=O)c1ccc(NC(=O)C(C)CS(C)(=O)=O)nc1-c1nc2cc(C(F)(F)F)cnc2n1C (stereo not shown) [Example I-21]						90	2.31	100	nematicidal efficacy (Meloidogyne incognita): 90%
CCS(=O)(=O)c1ccc(-n2cncn2)nc1-c1nc2cc(C(F)(F)F)cnc2n1C [Example I-22]	100	100		100	100	100		100	efficacy (Boophilus microplus): 80%
CCS(=O)(=O)c1ccc(-n2cc(F)cn2)nc1-c1cn2cnc(C(F)(F)F)cc2n1 [Example I-30]									log P (acidic) [4]: 3.13
CCS(=O)(=O)c1ccc(C(=O)NC)nc1-c1cn2cnc(C(F)(F)F)cc2n1 [Example I-38, 5-(Ethylsulphonyl)-N-methyl-6-[7-(trifluoromethyl)imidazo[1,2-c]pyrimidin-2-yl]pyridine-2-carboxamide]									chromatographic logP [4]: 1.95
Fc1ccc(F)c(-c2cn3cc(C(F)(F)F)ncc3n2)n1 [IX-6, 2-(3,6-Difluoropyridin-2-yl)-6-(trifluoromethyl)imidazo[1,2-a]pyrazine]									chromatographic logP [4]: 2.05
